Test results published in US10093660B2, “Sulfoximine substituted quinazolines for pharmaceutical compositions” (EVOTEC INTERNATIONAL GMBH, priority 2013, dated 2018).

Tests used:
[1] = target: MNK1a (Homo sapiens (Human), UniProt Q9BUB5); test: MNK1 in vitro kinase assay (Assay 3), Z'-LYTE; assay type: biochemical; conditions: for inhibition at 1 µM: compound concentration of 1 μM, read-out: MNK1 % INH
[2] = target: MNK2a (Homo sapiens (Human), UniProt Q9HBH9); test: MNK2a in vitro kinase assay (Assay 2), ADP-Glo; assay type: biochemical; conditions: assay 2; read-out: MNK2 IC50
Sequence of MNK2a (Q9HBH9 whole entry): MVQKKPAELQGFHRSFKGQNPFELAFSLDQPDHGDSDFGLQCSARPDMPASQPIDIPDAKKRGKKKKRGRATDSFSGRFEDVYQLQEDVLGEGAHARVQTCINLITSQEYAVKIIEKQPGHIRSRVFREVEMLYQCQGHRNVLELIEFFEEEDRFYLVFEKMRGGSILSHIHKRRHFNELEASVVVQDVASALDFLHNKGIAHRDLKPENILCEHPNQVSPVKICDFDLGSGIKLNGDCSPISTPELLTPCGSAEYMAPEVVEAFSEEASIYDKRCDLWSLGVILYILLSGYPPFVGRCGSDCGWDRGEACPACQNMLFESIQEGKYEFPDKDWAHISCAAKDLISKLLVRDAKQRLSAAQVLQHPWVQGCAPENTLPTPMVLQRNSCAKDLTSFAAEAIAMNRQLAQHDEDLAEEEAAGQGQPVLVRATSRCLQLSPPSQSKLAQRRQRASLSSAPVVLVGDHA
Source text: B. MNK2a In Vitro Kinase Assay (Assay 2)

Sequence of MNK1a (Q9BUB5 other isoform, or with tags, fused parts or gaps): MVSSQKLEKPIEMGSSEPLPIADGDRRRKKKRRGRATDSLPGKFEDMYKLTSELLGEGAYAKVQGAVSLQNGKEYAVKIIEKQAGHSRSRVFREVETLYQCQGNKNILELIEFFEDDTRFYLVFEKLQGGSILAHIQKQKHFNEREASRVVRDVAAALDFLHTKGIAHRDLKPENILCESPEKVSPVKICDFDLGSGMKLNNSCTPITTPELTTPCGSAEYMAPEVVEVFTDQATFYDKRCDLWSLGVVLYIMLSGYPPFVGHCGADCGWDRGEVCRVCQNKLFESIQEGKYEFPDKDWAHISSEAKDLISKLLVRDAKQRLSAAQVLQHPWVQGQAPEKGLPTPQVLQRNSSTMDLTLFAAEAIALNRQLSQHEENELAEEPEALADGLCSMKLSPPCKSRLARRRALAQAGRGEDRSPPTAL

Row | Compound | inhibition at 1 µM [1] [%] | IC50 [2] [nM] | IC50 [1] [nM]
1 | Cc1cc(N=S(C)(C)=O)cc2ncnc(Nc3ccc(Cl)cc3O[C@@H]3COC[C@H]3O)c12 [Example 1.31] | 91 | 6 | 
2 | Cc1cc(N=S2(=O)CCCC2)cc2ncnc(Nc3ccc(Cl)cc3O[C@@H]3COC[C@H]3O)c12 [Example 1.32] | 94 | 4 | 
3 | Cc1c(F)c(N=S(C)(C)=O)cc2ncnc(Nc3ccc(F)cc3O[C@H]3COC[C@@H]3O)c12 [Example 1.33] | 96 | 8 | 
4 | Cc1cc(N=S2(=O)CCCC2)cc2ncnc(Nc3ccc(F)cc3O[C@@H]3CN(C)C[C@H]3O)c12 [Example 2.5] | 85 | 17 | 
5 | Cc1cc(N=S(C)(C)=O)cc2ncnc(Nc3ccc(F)cc3O[C@@H]3CN(C)C[C@H]3O)c12 [Example 2.6] | 63 | 91 | 
6 | Cc1cc(N=S(C)(C)=O)cc2ncnc(Nc3ccc(F)cc3O[C@@H]3CN(S(C)(=O)=O)C[C@H]3O)c12 [Example 2.11] | 79 | 14 | 
7 | Cc1cc(N=S2(=O)CCCC2)cc2ncnc(Nc3ccc(F)cc3O[C@@H]3CN(S(C)(=O)=O)C[C@H]3O)c12 [Example 2.12] |  | 3 | 94
8 | CC(=O)N1C[C@@H](O)[C@H](Oc2cc(F)ccc2Nc2ncnc3cc(N=S4(=O)CCCC4)cc(C)c23)C1 [Example 2.13] | 90 | 16 | 
9 | CO[C@@H]1CN(C(=O)OCc2ccccc2)C[C@H]1Oc1cc(F)ccc1Nc1ncnc2cc(N=S(C)(C)=O)cc(C)c12 [Example 2.14] | 19 | 108 | 
10 | CO[C@@H]1CN(C(=O)OCc2ccccc2)C[C@H]1Oc1cc(F)ccc1Nc1ncnc2cc(N=S3(=O)CCCC3)cc(C)c12 [Example 2.15] | 31 | 78 | 
11 | CO[C@@H]1CN(C(=O)OCc2ccccc2)C[C@H]1Oc1ncccc1Nc1ncnc2cc(N=S3(=O)CCCC3)cc(C)c12 [Example 2.16] | 55 | 82 | 
12 | CO[C@@H]1CN(C(=O)OCc2ccccc2)C[C@H]1Oc1ncccc1Nc1ncnc2cc(N=S(C)(C)=O)cc(C)c12 [Example 2.17] | 18 | 21 | 
13 | Cc1cc(N=S2(=O)CCCC2)cc2ncnc(Nc3cccnc3O[C@@H]3CN(C)C[C@H]3O)c12 [Example 2.18] |  | 49 | 359
14 | Cc1cc(N=S(C)(C)=O)cc2ncnc(Nc3cccnc3O[C@@H]3CN(C)C[C@H]3O)c12 [Example 2.19] | 45 | 132 | 
15 | Cc1cc(N=S(C)(C)=O)cc2ncnc(Nc3cccnc3O[C@@H]3CN(S(C)(=O)=O)C[C@H]3O)c12 [Example 2.20] | 77 | 27 | 
16 | CC(=O)N1C[C@@H](O)[C@H](Oc2ncccc2Nc2ncnc3cc(N=S(C)(C)=O)cc(C)c23)C1 [Example 2.21] | 57 | 179 | 
17 | Cc1cc(N=S2(=O)CCCC2)cc2ncnc(Nc3cccnc3O[C@@H]3CN(S(C)(=O)=O)C[C@H]3O)c12 [Example 2.22] | 86 | 7 | 
18 | CC(=O)N1C[C@@H](O)[C@H](Oc2ncccc2Nc2ncnc3cc(N=S4(=O)CCCC4)cc(C)c23)C1 [Example 2.23] | 75 | 23 | 
19 | Cc1cc(N=S(C)(C)=O)cc2ncnc(Nc3cccnc3O[C@H]3COC[C@@H]3O)c12 [Example 2.28] | 85 | 11 | 

Row | Compound | inhibition at 1 µM [1] [%] | IC50 [2] [nM] | IC50 [1] [nM]
20 | Cc1cc(N=S2(=O)CCCC2)cc2ncnc(Nc3ccc(F)cc3O[C@H]3COC[C@@H]3O)c12 [Example 2.29] | 104 | 2 | 40
21 | CCS(C)(=O)=Nc1cc(C)c2c(Nc3ccc(F)cc3O[C@H]3COC[C@@H]3O)ncnc2c1 (some centres unmarked) [Example 2.37] | 93 | 4 | 
22 | Cc1cc(N=S2(=O)CCCCC2)cc2ncnc(Nc3ccc(F)cc3O[C@H]3COC[C@@H]3O)c12 [Example 2.38] | 96 | 3 | 
23 | Cc1cc(N=S(C)(C)=O)cc2ncnc(Nc3ccc(Cl)nc3O[C@H]3COC[C@@H]3O)c12 [Example 2.40] | 96 | 6 | 
24 | Cc1cc(N=S2(=O)CCCC2)cc2ncnc(Nc3ccc(Cl)nc3O[C@H]3COC[C@@H]3O)c12 [Example 2.42] |  | 4 | 39
25 | Cc1cc(N=S2(=O)CCC2)cc2ncnc(Nc3ccc(Cl)nc3O[C@H]3COC[C@@H]3O)c12 [Example 2.43] | 100 | 3 | 
26 | Cc1cc(N=S(C)(C)=O)cc2ncnc(Nc3ccc(Cl)nc3O[C@@H]3COC[C@H]3O)c12 [Example 2.48] | 90 | 7 | 
27 | Cc1cc(N=S(C)(C)=O)cc2ncnc(Nc3cccnc3O[C@@H]3COC[C@H]3O)c12 [Example 2.51] | 81 | 11 | 
28 | Cc1cc(N=S2(=O)CCC2)cc2ncnc(Nc3ccc(Cl)nc3O[C@@H]3COC[C@H]3O)c12 [Example 2.53] | 83 | 4 | 
29 | Cc1cc(N=S2(=O)CCCC2)cc2ncnc(Nc3ccc(Cl)nc3O[C@@H]3COC[C@H]3O)c12 [Example 2.54] |  | 3 | 66
30 | CS(C)(=O)=Nc1cc(F)c2c(Nc3ccc(F)cc3O[C@H]3COC[C@@H]3O)ncnc2c1 [Example 2.55] | 91 | 3 | 
31 | Cc1cc(N=S(C)(C)=O)cc2ncnc(Nc3ccc(F)cc3O[C@H]3CN(S(C)(=O)=O)C[C@@H]3O)c12 [Example 2.59] | 99 | 4 | 
32 | Cc1cc(N=S2(=O)CCCC2)cc2ncnc(Nc3ccc(F)cc3O[C@H]3CN(S(C)(=O)=O)C[C@@H]3O)c12 [Example 2.60] |  | 3 | 37
33 | Cc1cc(N=S(C)(C)=O)cc2ncnc(Nc3ccc(F)cc3O[C@H]3CN(C)C[C@@H]3O)c12 [Example 2.62] | 78 | 33 | 
34 | Cc1cc(N=[S@@](C)(=O)c2ccccc2)cc2ncnc(Nc3ccc(F)cc3O[C@@H]3COC[C@@H]3O)c12 [Example 2.64] | 88 | 9 | 
35 | Cc1cc(N=S(C)(=O)C(C)C)cc2ncnc(Nc3ccc(F)cc3O[C@H]3COC[C@@H]3O)c12 (some centres unmarked) [Example 2.74] | 91 | 7 | 
36 | Cc1cc(N=S(C)(=O)c2ccccc2)cc2ncnc(Nc3ccc(F)cc3O[C@H]3COC[C@@H]3O)c12 (some centres unmarked) [Example 2.75] |  | 8 | 95
37 | Cc1cc(N=S(C)(=O)C2CCOCC2)cc2ncnc(Nc3ccc(F)cc3O[C@H]3COC[C@@H]3O)c12 (some centres unmarked) [Example 2.78] |  | 11 | 107
38 | Cc1cc(N=S(C)(=O)C(C)(C)C)cc2ncnc(Nc3ccc(F)cc3O[C@H]3COC[C@@H]3O)c12 (some centres unmarked) [Example 2.79] | 85 | 10 | 

Row | Compound | inhibition at 1 µM [1] [%] | IC50 [2] [nM] | IC50 [1] [nM]
39 | CC1CCS(=O)(=Nc2cc(F)c3c(Nc4ccc(F)cc4O[C@H]4COC[C@@H]4O)ncnc3c2)C1 (some centres unmarked) [Example 2.80] | 96 | 4 | 
40 | Cc1cc(N=S(C)(=O)c2cccnc2)cc2ncnc(Nc3ccc(F)cc3O[C@H]3COC[C@@H]3O)c12 (some centres unmarked) [Example 2.81] | 91 | 14 | 
41 | Cc1cc(N=S2(=O)CCC(C)C2)cc2ncnc(Nc3ccc(F)cc3O[C@H]3COC[C@@H]3O)c12 (some centres unmarked) [Example 2.85] | 97 | 3 | 
42 | O=S1(=Nc2cc(F)c3c(Nc4ccc(F)cc4O[C@H]4COC[C@@H]4O)ncnc3c2)CCC1 [Example 2.92] | 99 | 2 | 44
43 | CC(=O)N1C[C@@H](O)[C@H](Oc2cc(F)ccc2Nc2ncnc3cc(N=S(C)(C)=O)cc(C)c23)C1 [Example 2.102] | 74 | 31 | 
44 | Cc1cc(N=S2(=O)CCCC2)cc2ncnc(Nc3cccnc3O[C@@H]3CNC[C@H]3O)c12 [Example 3.1] | 93 | 29 | 
45 | Cc1cc(N=S(C)(C)=O)cc2ncnc(Nc3cccnc3O[C@@H]3CNC[C@H]3O)c12 [Example 3.2] | 66 | 47 | 
46 | Cc1cc(N=S2(=O)CCCC2)cc2ncnc(Nc3cccnc3O[C@H]3CNC[C@@H]3O)c12 [Example 3.3] | 88 | 26 | 
47 | Cc1cc(N=S(C)(C)=O)cc2ncnc(Nc3ccc(F)cc3O[C@@H]3CNC[C@H]3O)c12 [Example 3.4] | 82 | 21 | 
48 | Cc1cc(N=S2(=O)CCCC2)cc2ncnc(Nc3ccc(F)cc3O[C@@H]3CNC[C@H]3O)c12 [Example 3.5] |  | 6 | 97
49 | Cc1cc(N=S(C)(C)=O)cc2ncnc(Nc3ccc(F)cc3O[C@H]3CNC[C@@H]3O)c12 [Example 3.7] | 84 | 38 | 
50 | CO[C@@H]1CNC[C@H]1Oc1cc(F)ccc1Nc1ncnc2cc(N=S(C)(C)=O)cc(C)c12 [Example 4.1] | 64 | 45 | 
51 | CO[C@@H]1CNC[C@H]1Oc1cc(F)ccc1Nc1ncnc2cc(N=S3(=O)CCCC3)cc(C)c12 [Example 4.2] | 87 | 8 | 
52 | CCN1C[C@@H](OC)[C@H](Oc2cc(F)ccc2Nc2ncnc3cc(N=S4(=O)CCCC4)cc(C)c23)C1 [Example 4.3] | 54 | 40 | 
53 | CO[C@@H]1CNC[C@H]1Oc1ncccc1Nc1ncnc2cc(N=S3(=O)CCCC3)cc(C)c12 [Example 4.4] | 93 | 11 | 
54 | CO[C@@H]1CNC[C@H]1Oc1ncccc1Nc1ncnc2cc(N=S(C)(C)=O)cc(C)c12 [Example 4.5] | 63 | 33 | 
55 | CO[C@@H]1CN(CC(F)F)C[C@H]1Oc1cc(F)ccc1Nc1ncnc2cc(N=S3(=O)CCCC3)cc(C)c12 [Example 5.1] |  | 16 | 373
56 | CO[C@@H]1CN(CC(F)F)C[C@H]1Oc1ncccc1Nc1ncnc2cc(N=S(C)(C)=O)cc(C)c12 [Example 5.2] | 56 | 72 | 
57 | CO[C@@H]1CN(CCF)C[C@H]1Oc1ncccc1Nc1ncnc2cc(N=S(C)(C)=O)cc(C)c12 [Example 5.3] | 31 | 109 | 
